Results taken from patent US20180064712A1, “METHODS OF REDUCING IMMUNE CELL ACTIVATION AND USES THEREOF” (Washington University, priority 2016, published 2018).

Legend:
IL-15 TM cells [1] = experiment: EM analysis of mitochondrial cristae after stimulation with or without Mdivi-1; format: cell-based, mice; details: IL-15 TM cells activated with αCD3/CD28-conjugated beads or PMA and ionomycin, presence or absence of Mdivi-1
From the text: (§1) FIG. 6A, FIG. 6B, FIG. 6C, FIG. 6D, FIG. 6E, FIG. 6F, FIG. 6G, FIG. 6H, FIG. 6I, FIG. 6J, FIG. 6K, FIG. 6L, FIG. 6M, and FIG. 6N depict graphs and images showing that mitochondrial cristae remodeling signals metabolic pathway engagement. (FIG. 6A) Basal ECAR of OT-I Opa1^+/+ and Opa1^−/− IL-2 TE cells (left) and day 7 TE cells isolated ex vivo after adoptive transfer from LmOVA infection (right). Data combined from 2-3 experiments (*p=0.0412, ***p<0.0001). (FIG. 6B) OCR at baseline and after indicated drugs, representative of 2 experiments shown as mean±SEM, and (FIG. 6C) D-Glucose-^13C1,2 trace analysis of OT-I Opa1^+/+ and Opa1^−/− IL-2 TE cells. Each lane represents separate mice with a technical replicate. (FIG. 6D) EM analysis of mitochondrial cristae from TE and TM cells isolated after LmOVA infection and (FIG. 6E) in vitro cultured IL-2 TE and TM cells. Data representative of 2 experiments, scale bar=0.25 μm. […] (FIG. 6K) IL-15 TM cell, (FIG. 6L, FIG. 6M) bone marrow-derived dendritic cell (BM-DCs) and macrophage (BM-Macs) % ECAR measured at baseline and after media, αCD3/CD28-conjugated bead, LPS, or LPS+IFN-γ injection as indicated. […]
To more thoroughly examine this idea, we assessed cristae morphology in TE and TM cells by EM following TCR stimulation. […]

IL-15 TM cells [2] = experiment: ECAR after αCD3/28 bead stimulation with or without Mdivi-1; format: cell-based, mice; details: αCD3/28-conjugated beads, 10 μM Mdivi-1 vs control
From the text: as §1, with “replicate.” for “replicate. (FIG. 6D) EM analysis of mitochondrial cristae from TE and TM cells isolated after LmOVA infection and (FIG. 6E) in vitro cultured IL-2 TE and TM cells. Data representative of 2 experiments, scale bar=0.25 μm.”
(§2) To more directly test this idea, we assessed ECAR of IL-15 TM cells that were stimulated with αCD3/28-conjugated beads in the presence or absence of Mdivi-1. […] We stimulated bone marrow derived dendritic cells (BM-DCs) and macrophages (BM-Macs) with lipolysaccharide (LPS) with or without interferon (IFN)-γ in the presence or absence of Mdivi-1 and measured ECAR. […]

[3] = test system: bone marrow derived dendritic cells (BM-DCs); experiment: ECAR after LPS stimulation with or without Mdivi-1, dendritic cells; format: cell-based, mice; details: BM-DCs following stimulation with LPS, 10 μM Mdivi-1
From the text: as §1, with “replicate.” for “replicate. (FIG. 6D) EM analysis of mitochondrial cristae from TE and TM cells isolated after LmOVA infection and (FIG. 6E) in vitro cultured IL-2 TE and TM cells. Data representative of 2 experiments, scale bar=0.25 μm.”
as §2

[4] = test system: Bone marrow derived macrophages (BM-Macs); experiment: ECAR after LPS with or without IFN-γ stimulation with or without Mdivi-1, macrophages; format: cell-based, mice; details: BM-Macs following stimulation with LPS with or without IFN-γ, 10 μM Mdivi-1
From the text: as §1, with “replicate.” for “replicate. (FIG. 6D) EM analysis of mitochondrial cristae from TE and TM cells isolated after LmOVA infection and (FIG. 6E) in vitro cultured IL-2 TE and TM cells. Data representative of 2 experiments, scale bar=0.25 μm.”
as §2

BM-Macs = experiment: intracellular Nos2 protein by flow cytometry; format: cell-based, mice; details: stimulated BM-Macs, Mdivi-1 treated
mitochondrial fission = details: as disclosed in Cassidy-Stone et al. Developmental Cell 2008; cited from earlier work

Structure (SMILES): COc1cc(-n2c(=S)[nH]c3ccccc3c2=O)c(Cl)cc1Cl [Mdivi-1]
- cristae morphology by EM (IL-15 TM cells [1]): intermembrane space widening over time in control cells in comparison to drug treated cells
- aerobic glycolysis (ECAR) (IL-15 TM cells [2]): did not robustly increase aerobic glycolysis
- aerobic glycolysis (ECAR) [3]: curtailed
- aerobic glycolysis (ECAR) [4]: curtailed
- nitric oxide synthase 2 (Nos2) protein expression (BM-Macs): significantly decreased
- efficacy relative to Mdivi-1 as mitochondrial fission inhibitor (mitochondrial fission): full efficacy
